The record followed here is PubChem BioAssay AID652053 (Broad Institute, 2013).

Molecules are shown by their SMILES. Some results are limits rather than exact numbers.

For the assay, the system named is Huh7 psiCHECK-miR122 Renilla luciferase reporter, 48 h. In words: suppression of miR-122 activity, Renilla luciferase sensor – cell-based, Huh7 psiCHECK-miR122, cherry-pick, dose response (AID 652053).

In the case of `Cc1ccc(NS(=O)(=O)c2cc(C(=O)NCCSc3ccc(C)cc3)ccc2C)cc1`, the AC40 was 4.89 µM.
Under `CC1=CC(C)(C)N(S(=O)(=O)c2ccc(C)cc2)c2cc(C)ccc21` stands 3.72 µM; under `COc1ccc(S(=O)(=O)NCc2ccco2)c2ccccc12`, 2.62 µM.
`S=C(NCc1ccncc1)Nc1cc(Cl)cc(Cl)c1`: the AC40 was 5.2 µM.
On to `COc1ccc(C)cc1S(=O)(=O)NC1CCCC1`, for which the AC40 was 6.24 µM.
`COc1ccc(C(=O)Nc2cccc(S(=O)(=O)NCc3ccco3)c2)cc1`: the AC40 is 0.822 µM.
For `CC(=O)Nc1ccc(NS(=O)(=O)c2ccc3ccccc3c2)cc1`, the AC40 is 14.3 µM.
Take `Cc1ccc(NC(=O)CNC(=O)c2cccs2)cc1S(=O)(=O)Nc1ccc(Cl)cc1`: the AC40 was 3.31 µM.
On to `COc1ccc(NS(=O)(=O)c2ccc(N3CCOCC3)c(NC(=O)c3ccc(F)cc3)c2)cc1`, for which the AC40 is 7.87 µM.
Under `Cc1ccc(S(=O)(=O)Nc2ccc3c(c2)CC(=O)N([C@@H](C)CO)C[C@@H](C)[C@H](CN(C)Cc2ccc(C(=O)Nc4ccccc4N)cc2)O3)cc1` stands 32.4 µM.
For `c1ccc(-n2nnnc2-c2cccc3ccccc23)cc1`, the AC40 was 10.6 µM.
As to `CC(=O)c1c(C)[nH]c(C(=O)N(CCc2ccccc2)Cc2ccccc2)c1C`, the AC40 was 30.8 µM.
Under `C[C@H]1CN([C@@H](C)CO)C(=O)c2cccc(NS(=O)(=O)c3ccccc3)c2O[C@@H]1CN(C)Cc1ccc(C(=O)Nc2ccccc2N)cc1` stands 22 µM; under `COc1cc(NS(=O)(=O)c2ccc(OC)c(C)c2C)c(OC)cc1Cl`, 3.5 µM.
As for `COc1ccc(OC)c(S(=O)(=O)N/N=C\c2ccc3c(c2)OCO3)c1`, the AC40 was 0.508 µM.
Under `COc1ccc(S(=O)(=O)Nc2ccc3c(c2)CC(=O)N([C@H](C)CO)C[C@H](C)[C@H](CN(C)Cc2ccc(C(=O)Nc4ccccc4N)cc2)O3)cc1` stands 10.5 µM.
The figure for `O=C(Nc1ccccc1)c1ccc(NC2CCCCC2)c(S(=O)(=O)N2CCOCC2)c1` is 13.9 µM; for `CCCCNS(=O)(=O)c1ccc2nc(SCC(=O)Nc3sccc3C#N)[nH]c2c1` it is 0.553 µM; for `Cc1ccc(NS(=O)(=O)c2cc(C(=O)NCCSC3CCCCC3)ccc2C)cc1` it is 4.68 µM.
Turning to `Cc1cc(S(=O)(=O)NCC2CC2)c(Cl)cc1Cl`, the AC40 is 2.7 µM.
As for `C[C@H](CO)N1C[C@H](C)[C@@H](CN(C)Cc2ccc(C(=O)Nc3ccccc3N)cc2)Oc2ccc(N(C)C)cc2CC1=O`, the AC40 is 11.3 µM.
With `CCOC(=O)/C(=N/Nc1ccc(Cl)cc1)S(=O)(=O)c1ccccc1`, the AC40 is 3.28 µM.
For `S=C(NCc1cccs1)Nc1cccc(Cl)c1`, the AC40 is 3.93 µM.
For the compound `O=C(CN1CCOCC1)Nc1ccc(Br)cc1C(=O)c1ccccc1`, the AC40 was 1.64 µM.
Consider `C[C@@H]1CN([C@H](C)CO)S(=O)(=O)c2ccc(-c3ccc(F)cc3)cc2O[C@@H]1CN(C)Cc1ccccc1C(=O)O`, for which the AC40 is 5.45 µM.
Consider `COCC#Cc1ccc2c(c1)O[C@H](CN(C)S(=O)(=O)c1ccc(OC)cc1)[C@H](C)CN([C@H](C)CO)S2(=O)=O`, for which the AC40 was 5.8 µM.
Take `COc1ccc(C)cc1S(=O)(=O)NCCC1=CCCCC1`: the AC40 was 0.465 µM.
Turning to `COc1ccc(S(=O)(=O)Nc2cc(C)c(O)c(S(=O)(=O)c3ccccc3)c2)cc1`, the AC40 was 29.6 µM.
For the compound `O=C1COc2ccc(S(=O)(=O)Nc3ccc(F)cc3)cc2N1`, the AC40 was 5.23 µM.
Consider `COc1ccc(-c2cc(C)no2)cc1S(=O)(=O)Nc1cccc(C)c1`, for which the AC40 was 0.83 µM.
Under `COc1ccc(NS(=O)(=O)c2cc(NC(=O)c3ccc(F)cc3)ccc2OC)cc1` stands 3.14 µM; under `O=S(=O)(Nc1ccc2cn[nH]c2c1)c1cc(Br)ccc1Br`, 4.32 µM; under `C[C@@H]1CN([C@H](C)CO)C(=O)c2cccc(NC(=O)c3ccc(-c4nccs4)cc3)c2O[C@@H]1CN(C)Cc1ccc(C(=O)Nc2ccccc2N)cc1`, 6.24 µM.
The figure for `COc1ccccc1S(=O)(=O)Nc1cccc(S(=O)(=O)N2CCCC2)c1` is 1.26 µM; for `O=C(NCCCn1ccnc1)c1cc(-c2ccccc2)on1` it is 28.8 µM; for `CC(C)(C)NS(=O)(=O)c1ccc2[nH]c3c(c2c1)CCCCC3` it is 5.04 µM.
As to `COc1ccccc1C(=O)Nc1ccc2c(c1)C(=O)N(C)[C@H]1CC[C@H](CC(=O)NCc3ccc(Cl)c(Cl)c3)O[C@H]1CO2`, the AC40 is 0.333 µM.
As for `COc1ccccc1NS(=O)(=O)c1cc(NC(=O)c2cccnc2)ccc1N1CCCCC1`, the AC40 is below 0.26 µM.
The figure for `C[C@H]1CN([C@@H](C)CO)C(=O)c2cccc(NC(=O)c3ccncc3)c2O[C@@H]1CN(C)CC1CCCCC1` is 7.44 µM.
As for `C=C(C)CN(CC)C(=O)COc1ccc(S(=O)(=O)Nc2ccc(OC)cc2)cc1`, the AC40 is 7.78 µM.
Turning to `Cc1cc(C)c(S(=O)(=O)NCCCn2ccnc2)cc1C`, the AC40 was 1.45 µM.
Turning to `Cc1ccc(-c2cc(C(=O)NCCCn3ccnc3)c3ccccc3n2)s1`, the AC40 was 11.1 µM.
Take `C[C@H](CO)N1C[C@H](C)[C@@H](CN(C)C(=O)Nc2cccc3ccccc23)Oc2ccc(NC(=O)Nc3ccc(C(F)(F)F)cc3)cc2CC1=O`: the AC40 is 7.77 µM.
For the compound `O=S(=O)(NC(=NCc1ccccc1)c1ccc(F)cc1)c1ccc(Cl)cc1`, the AC40 was 13.7 µM.
As for `CCOc1ccc(S(=O)(=O)/N=C(/Nc2ccc(C)c(S(=O)(=O)N3CCOCC3)c2)c2ccccc2)cc1`, the AC40 was 2.23 µM.
Take `CCN(CC)S(=O)(=O)c1cc(NS(=O)(=O)c2cc(Cl)ccc2Cl)ccc1C`: the AC40 is 4.19 µM.
The figure for `Cc1cc(Br)ccc1NC(=S)NCCc1ccccc1` is 9.65 µM.
As for `C=CCNc1cc(F)ccc1S(=O)(=O)NCC=C`, the AC40 is 1.03 µM.
Consider `C[C@@H]1CN([C@H](C)CO)C(=O)Cc2cc(NS(=O)(=O)c3ccc(Cl)cc3)ccc2O[C@@H]1CN(C)C(=O)Nc1ccc(C(F)(F)F)cc1`, for which the AC40 was 6.38 µM.
The figure for `CC(C)(C)c1cc(C(=O)NNc2cccc(Cl)c2)n(Cc2ccccc2)n1` is 4.19 µM; for `CCCC#Cc1ccc2c(c1)O[C@H](CN(C)C(=O)c1ccccn1)[C@@H](C)CN([C@H](C)CO)S2(=O)=O` it is 11.3 µM; for `O=S(Cc1ccc(Cl)cc1)CC(O)(c1ccccc1)c1ccccc1` (stereo unspecified) it is 18.1 µM.
On to `Cc1ccc(C(=O)NCCSC2CCCCC2)cc1S(=O)(=O)Nc1ccccc1`, for which the AC40 is 6.44 µM.
As for `CC(=O)N1CCc2cc(Br)cc(S(=O)(=O)NCc3ccc(Cl)cc3)c21`, the AC40 was 4.29 µM.
In the case of `Cc1cc(S(=O)(=O)N(Cc2ccccc2F)C2CC2)ccc1-n1cnnn1`, the AC40 was 1.94 µM.
Regarding `COc1ccc(C(=O)Nc2ccc(S(=O)(=O)NCc3ccco3)cc2)cc1OC`, the AC40 is 4.75 µM.
As to `Cc1ccc(-c2ccc3c(c2)O[C@H](CN(C)Cc2ccc(F)cc2)[C@@H](C)CN([C@H](C)CO)S3(=O)=O)cc1`, the AC40 was 5.46 µM.
On to `C[C@H](CO)N1C[C@H](C)[C@@H](CN(C)CC2CCCCC2)Oc2c(NC(=O)c3ccncc3)cccc2C1=O`, for which the AC40 was 1.97 µM.
As for `CCOc1ccc(Br)cc1S(=O)(=O)Nc1cccc(S(=O)(=O)N(C)c2ccccc2)c1`, the AC40 is 3.18 µM.
Under `CC(C)(C)C(=O)Nc1cc(S(=O)(=O)Nc2ccc(Cl)cc2)ccc1O` stands 13.8 µM; under `COc1ccccc1CN(C)C(=O)c1cccc(S(=O)(=O)N2CCCc3ccccc32)c1`, 4.57 µM.
`COc1ccccc1NS(=O)(=O)c1cc(NC(=S)NCC2CCCO2)ccc1C` (stereo unspecified): the AC40 was 3.52 µM.
In the case of `O=C(CCc1ccc(S(=O)(=O)NC2CCCCC2)cc1)N(Cc1ccccc1)Cc1ccccc1`, the AC40 was 2.07 µM.
Under `C[C@@H]1CN([C@H](C)CO)C(=O)c2cc(NC(=O)Nc3ccccc3)ccc2O[C@@H]1CN(C)S(=O)(=O)c1ccc(Cl)cc1` stands 5.33 µM; under `O=S(=O)(Nc1ccc(Cl)cc1)c1cccc2nsnc12`, 14.8 µM; under `O=S(=O)(Nc1ccc2ccccc2c1)c1ccccc1`, 12.5 µM.
With `Cc1cc(C(O)c2ncc(-c3ccccc3F)[nH]2)ccc1F` (stereo unspecified), the AC40 was 3.57 µM.
In the case of `Cc1ccc(S(=O)(=O)Nc2ccc3c(c2)CC(=O)N([C@H](C)CO)C[C@@H](C)[C@H](CN(C)Cc2ccc(C(=O)Nc4ccccc4N)cc2)O3)cc1`, the AC40 is 17.2 µM.
Take `CN(C)c1ccc(C(=O)c2ccc(N(C)C)c3ccccc23)cc1`: the AC40 was 4.07 µM.
For the compound `O=S(=O)(NCC1CCCO1)c1ccc(Cl)c(C(F)(F)F)c1` (stereo unspecified), the AC40 was 7.84 µM.
Turning to `Cc1ccccc1NC(=O)Nc1ccc2c(c1)C(=O)N(C)[C@H]1CC[C@H](CC(=O)NCC3CC3)O[C@H]1CO2`, the AC40 is 1.87 µM.
As for `COc1ccc(OC)c(C(c2nnnn2C2CCCC2)N2CCN(c3ccccc3F)CC2)c1` (stereo unspecified), the AC40 was 12.3 µM.
The figure for `C[C@@H]1CN([C@H](C)CO)C(=O)c2cccc(NC(=O)c3nc4ccccc4s3)c2O[C@@H]1CN(C)Cc1ccc(C(=O)Nc2ccccc2N)cc1` is 17.7 µM; for `Cc1ccc(C(=O)Nc2ccccc2-c2ccccc2)cc1S(=O)(=O)Nc1ccccc1` it is 3.64 µM.
As to `CC(=O)c1cccc(NS(=O)(=O)c2cc(-c3cnc(C4CC4)o3)ccc2C)c1`, the AC40 is 6.63 µM.
On to `COc1ccc(NS(=O)(=O)c2cc(C)ccc2NC(=O)c2cc(C)oc2C)cc1`, for which the AC40 was 3.23 µM.
Under `COc1ccc(C(C)(C)C)cc1S(=O)(=O)n1ccnc1C` stands 4.82 µM; under `Cc1c(C(=O)OC2CCCC2)[nH]c2c1C(=O)CC(c1ccco1)C2` (stereo unspecified), 5.77 µM; under `COc1cc(NS(=O)(=O)c2ccc3c(c2)C(C)(C)C(=O)N3C)cc(OC)c1`, 2.85 µM.
The figure for `CCc1ccc(OC)c(S(=O)(=O)Nc2ccccc2C)c1` is 1.03 µM; for `CCC(C)(C)NC(=O)C(c1cccn1C)N(C(=O)Cn1nnc2ccccc21)c1ccc(OC)cc1OC` (stereo unspecified) it is 21 µM; for `COc1ccc(OC)c(S(=O)(=O)Nc2cc3c4c(c2)CCC(=O)N4CCC3)c1` it is 0.84 µM.
For the compound `O=C(Cc1cccc2ccccc12)Nc1ccc(OC(F)F)c(Cl)c1`, the AC40 was 4.28 µM.
Consider `CC(C)NC(=O)Nc1ccc2c(c1)CC(=O)N([C@H](C)CO)C[C@H](C)[C@H](CN(C)Cc1ccc(C(=O)Nc3ccccc3N)cc1)O2`, for which the AC40 is 14.2 µM.
With `COc1ccc(NS(=O)(=O)c2cc(C)ccc2C)cc1`, the AC40 is 1.47 µM.
As to `O=S(=O)(Nc1ccc(Cl)cc1)c1ccc2c(c1)CCO2`, the AC40 is 2.26 µM.
